Source: article PMC6100082, “Pyridine-Ureas as Potential Anticancer Agents: Synthesis and In Vitro Biological Evaluation” (Molecules : A Journal of Synthetic Chemistry and Natural …, 2018)
Like-named read-outs stand apart in the source and are kept apart here.

Experiments:
Assay type in all cases: cell-based, human
HL-60(TB) = test: NCI one-dose SRB assay (Leukemia)
Protocol: (§1) The structures of all the newly prepared pyridine-ureas 8a–n were submitted to the National Cancer Institute (NCI) Developmental Therapeutic Program. Eight compounds 8b, 8d, 8e, 8i, 8j and 8l–n were selected to be examined for their in vitro growth inhibitory activity. The anticancer assays were carried out according to the protocol of the Drug Evaluation Branch, NCI, Bethesda. The selected pyridine-ureas were tested at one dose primary anticancer assay against a panel of approximately 58 cancer lines (concentration 10^−5 M). The tested human cancer cell lines emerged from nine different cancer subtypes: leukemia, colon, melanoma, ovarian, lung, CNS, renal, breast and prostate cancers. The sulforhodamine B (SRB) protein assay was adopted to estimate the cell viability and growth. The results were reported as mean-graph of the percentage growth of the treated cells, and presented as percentage growth inhibition (GI%) caused by the test compounds (Table 2).
(§2) The anticancer assays were performed in accordance with the protocol of the Drug Evaluation Branch, NCI, Bethesda. A 48 h drug exposure protocol was used and sulforhodamine B (SRB) protein assay was applied to estimate the cell viability and growth, as reported earlier.

SR = test: NCI one-dose SRB assay (Leukemia)
Protocol: as §1, §2

K-562 = test: NCI one-dose SRB assay (Leukemia)
Protocol: as §1, §2

RPMI-8226 = test: NCI one-dose SRB assay (Leukemia)
Protocol: as §1, §2

CCRF-CEM = test: NCI one-dose SRB assay (Leukemia)
Protocol: as §1, §2

MOLT-4 = test: NCI one-dose SRB assay (Leukemia)
Protocol: as §1, §2

NCI-H322M = test: NCI one-dose SRB assay (Non-Small Cell Lung Cancer)
Protocol: as §1, §2

NCI-H522 = test: as above
Protocol: as §1, §2

NCI-H460 = test: as above
Protocol: as §1, §2

HOP-62 = test: as above
Protocol: as §1, §2

NCI-H226 = test: as above
Protocol: as §1, §2

EKVX = test: as above
Protocol: as §1, §2

HOP-92 = test: as above
Protocol: as §1, §2

NCI-H23 = test: as above
Protocol: as §1, §2

A549/ATCC = test: as above
Protocol: as §1, §2

[1] = system: breast cancer MCF-7 cell line; test: In vitro anti-proliferative activity, MTT assay; conditions: Homo sapiens, MCF-7, MTT
Protocol: The in vitro anti-proliferative activity of the newly prepared pyridine-ureas 8a–n was examined against breast cancer MCF-7 cell line. The assay was carried out, as triplicates, utilizing the 3-(4,5-dimethylthiazol-2-yl)-2,5-diphenyltetrazolium bromide (MTT) colorimetric assay as described by T. Mosmann. Doxorubicin and Sorafenib were included in this assay as a reference drug.
MCF-7 (human breast cancer cell line) and WI-38 (human lung fibroblast cell line), were obtained from American Type Culture Collection (Manassas, VA, USA). The cells were propagated in DMEM and supplemented with 10% heat-inactivated FBS (Hyclone), 10 μg/mL of insulin (Manufacturer, Sigma, St. Louis, MO, USA), and 1% penicillin-streptomycin. MTT assay was utilized to examine the in vitro anti-proliferative activity of the newly prepared ureas following the reported procedures. […] The data presented are the mean of at least three separate experiments.

UACC-62 = test: NCI one-dose SRB assay (Melanoma)
Protocol: as §1, §2

SK-MEL-28 = test: NCI one-dose SRB assay (Melanoma)
Protocol: as §1, §2

MDA-MB-435 = test: NCI one-dose SRB assay (Melanoma)
Protocol: as §1, §2

SK-MEL-2 = test: NCI one-dose SRB assay (Melanoma)
Protocol: as §1, §2

LOX IMVI = test: NCI one-dose SRB assay (Melanoma)
Protocol: as §1, §2

SK-MEL-5 = test: NCI one-dose SRB assay (Melanoma)
Protocol: as §1, §2

M14 = test: NCI one-dose SRB assay (Melanoma)
Protocol: as §1, §2

MALME-3M = test: NCI one-dose SRB assay (Melanoma)
Protocol: as §1, §2

[2] = Homo sapiens, 10 μM, read-out: Percentage growth inhibition (GI%)

How did the “Growth Percent” value (HL-60(TB); 1.00E-5 Molar) turn out when `COc1ccc(-c2ccc(NC(=O)Nc3cccc(C(F)(F)F)c3)c(C)n2)cc1` [Compound 8b, 1-(6-(4-Methoxyphenyl)-2-methylpyridin-3-yl)-3-(3-(trifluoromethyl)phenyl) Urea] was run?
Its value is 49.75%.

And the inhibition at 10 µM (HL-60(TB); [2])?
Its inhibition at 10 µM is 51%.

What about the “Growth Percent” value (SR; 1.00E-5 Molar) of the same compound?
The value was 36.30%.

And the inhibition at 10 µM (SR; [2])?
The inhibition at 10 µM was 64%.

What about the inhibition at 10 µM (K-562; Homo sapiens, K562, K-562, 10 μM, read-out: Percentage growth inhibition (GI%)) of the same compound?
Its inhibition at 10 µM is 68%.

What about the “Growth Percent” value (K-562; K-562, 1.00E-5 Molar) of the same compound?
Its value is 32.55%.

What about the inhibition at 10 µM (RPMI-8226; Homo sapiens, RPMI-8226, 10 μM, read-out: Percentage growth inhibition (GI%)) of the same compound?
Its inhibition at 10 µM is 78%.

What about the “Growth Percent” value (RPMI-8226; RPMI-8226, 1.00E-5 Molar) of the same compound?
Its value is 22.58%.

And the “Growth Percent” value (CCRF-CEM; 1.00E-5 Molar)?
Its value is 42.94%.

And the inhibition at 10 µM (CCRF-CEM; [2])?
Its inhibition at 10 µM is 58%.

And the inhibition at 10 µM (MOLT-4; Homo sapiens, MOLT-4, 10 μM, read-out: Percentage growth inhibition (GI%))?
Its inhibition at 10 µM is 67%.

And the “Growth Percent” value (MOLT-4; MOLT-4, 1.00E-5 Molar)?
Its value is 33.74%.

And the “Growth Percent” value (NCI-H322M; 1.00E-5 Molar)?
Its value is 64.44%.

What about the inhibition at 10 µM (NCI-H322M; [2]) of the same compound?
The inhibition at 10 µM was 36%.

And the inhibition at 10 µM (NCI-H522; Homo sapiens, NCI-H522, 10 μM, read-out: Percentage growth inhibition (GI%))?
Its inhibition at 10 µM is 72%.

And the “Growth Percent” value (NCI-H522; NCI-H522, 1.00E-5 Molar)?
Its value is 28.48%.

What about the inhibition at 10 µM (NCI-H460; Homo sapiens, NCI-H460, 10 μM, read-out: Percentage growth inhibition (GI%)) of the same compound?
The inhibition at 10 µM was 52%.

And the “Growth Percent” value (NCI-H460; NCI-H460, 1.00E-5 Molar)?
The value was 48.67%.

What about the “Growth Percent” value (HOP-62; HOP-62, 1.00E-5 Molar) of the same compound?
The value was 67.99%.

What about the inhibition at 10 µM (HOP-62; Homo sapiens, HOP-62, 10 μM, read-out: Percentage growth inhibition (GI%)) of the same compound?
The inhibition at 10 µM was 33%.

And the inhibition at 10 µM (NCI-H226; Homo sapiens, NCI-H226, 10 μM, read-out: Percentage growth inhibition (GI%))?
The inhibition at 10 µM was 42%.

And the “Growth Percent” value (NCI-H226; NCI-H226, 1.00E-5 Molar)?
Its value is 58.09%.

What about the “Growth Percent” value (EKVX; 1.00E-5 Molar) of the same compound?
Its value is 41.42%.

What about the inhibition at 10 µM (EKVX; [2]) of the same compound?
Its inhibition at 10 µM is 59%.

And the “Growth Percent” value (HOP-92; HOP-92, 1.00E-5 Molar)?
Its value is 68.79%.

And the inhibition at 10 µM (HOP-92; Homo sapiens, HOP-92, 10 μM, read-out: Percentage growth inhibition (GI%))?
The inhibition at 10 µM was 32%.

And the inhibition at 10 µM (NCI-H23; Homo sapiens, NCI-H23, 10 μM, read-out: Percentage growth inhibition (GI%))?
The inhibition at 10 µM was 53%.

And the “Growth Percent” value (NCI-H23; NCI-H23, 1.00E-5 Molar)?
The value was 47.63%.

And the “Growth Percent” value (A549/ATCC; 1.00E-5 Molar)?
Its value is 42.47%.

What about the inhibition at 10 µM (A549/ATCC; [2]) of the same compound?
The inhibition at 10 µM was 58%.

And the IC50 ([1]; MCF7, 48 h, 48 h of incubation, read-out: IC50 48 h)?
Its IC50 is 5.66 ± 0.45 µM.

And the IC50 ([1]; MCF7, 72 h, 72 h of incubation, read-out: IC50 72 h)?
Its IC50 is 5.03 ± 0.29 µM.

And the inhibition at 10 µM (UACC-62; Homo sapiens, UACC-62, 10 μM, read-out: Percentage growth inhibition (GI%))?
Its inhibition at 10 µM is 37%.

And the “Growth Percent” value (UACC-62; UACC-62, 1.00E-5 Molar)?
Its value is 63.91%.

And the inhibition at 10 µM (SK-MEL-28; Homo sapiens, SK-MEL-28, 10 μM, read-out: Percentage growth inhibition (GI%))?
The inhibition at 10 µM was 31%.

What about the “Growth Percent” value (SK-MEL-28; SK-MEL-28, 1.00E-5 Molar) of the same compound?
Its value is 69.29%.

And the inhibition at 10 µM (MDA-MB-435; Homo sapiens, MDA-MB-435, 10 μM, read-out: Percentage growth inhibition (GI%))?
The inhibition at 10 µM was 31%.

And the “Growth Percent” value (MDA-MB-435; MDA-MB-435, 1.00E-5 Molar)?
The value was 69.59%.

And the inhibition at 10 µM (SK-MEL-2; Homo sapiens, SK-MEL-2, 10 μM, read-out: Percentage growth inhibition (GI%))?
Its inhibition at 10 µM is 25%.

And the “Growth Percent” value (SK-MEL-2; SK-MEL-2, 1.00E-5 Molar)?
The value was 75.95%.

And the “Growth Percent” value (LOX IMVI; 1.00E-5 Molar)?
The value was 47.72%.

What about the inhibition at 10 µM (LOX IMVI; [2]) of the same compound?
The inhibition at 10 µM was 53%.

What about the inhibition at 10 µM (SK-MEL-5; Homo sapiens, SK-MEL-5, 10 μM, read-out: Percentage growth inhibition (GI%)) of the same compound?
Its inhibition at 10 µM is 59%.

And the “Growth Percent” value (SK-MEL-5; SK-MEL-5, 1.00E-5 Molar)?
Its value is 41.63%.

And the inhibition at 10 µM (M14; Homo sapiens, M14, 10 μM, read-out: Percentage growth inhibition (GI%))?
The inhibition at 10 µM was 63%.

What about the “Growth Percent” value (M14; M14, 1.00E-5 Molar) of the same compound?
The value was 37.25%.

What about the “Growth Percent” value (MALME-3M; 1.00E-5 Molar) of the same compound?
Its value is 90.58%.

What about the inhibition at 10 µM (MALME-3M; [2]) of the same compound?
The inhibition at 10 µM was 10%.
